Measurements reported in PMC9076587 (RSC Advances, 2019).
“Also recorded” adds a separate entry of the source.

Key:
Assay type in all cases: cell-based
MCF-7 cells = experiment: MTT anti-proliferative assay, MCF-7; details: Homo sapiens, MCF7, read-out: IC50 MCF-7
MDA-MB-231 cells = experiment: MTT anti-proliferative assay, MDA-MB-231; details: for IC50: Homo sapiens, MDA-MB-231, read-out: IC50 MDA-MB-231; for selectivity between cell lines (in words): MDA-MB-231 versus MCF-7
HEK-293 cells = experiment: Cytotoxicity against non-tumorigenic HEK-293 cells; details: for IC50: Homo sapiens, HEK293, read-out: IC50 value in HEK293 cells

Structure (SMILES) | IC50 (MCF-7 cells) [µM] | IC50 (MDA-MB-231 cells) [µM] | cytotoxicity against HEK-293 cells (in words) (HEK-293 cells) | IC50 (HEK-293 cells) [µM] | selectivity between cell lines (in words) (MDA-MB-231 cells)
CC1=CC(=O)c2c(O)cccc2C1=O [Plumbagin, reference compound] | 3.5 | 4.4 |  |  | 
COc1ccc(/C(=C(/CCn2cc(CN3C(=O)C(=O)c4cc(Br)cc(Br)c43)nn2)c2ccccc2)c2ccccc2)cc1 [12c] | 13.1 | 14.8 | moderately cytotoxic | 21.6 | 
COc1ccc(/C(=C(/CCn2cc(CN3C(=O)C(=O)c4cc(Br)ccc43)nn2)c2ccccc2)c2ccccc2)cc1 [12b] | > 100 | 75.9 |  |  | selective against MDA-MB-231 cells
COc1ccc(/C(=C(/CCn2cc(CN3C(=O)C4(OCCO4)c4cc(Cl)ccc43)nn2)c2ccccc2)c2ccccc2)cc1 [13a] | 21 | 20.4 | moderately cytotoxic | 43.9 | 
O=C1C(=O)N(Cc2cn(CC/C(=C(\c3ccccc3)c3ccc(OCCO)cc3)c3ccccc3)nn2)c2c(Br)cc(Br)cc21 [14e] | 31.6 | 19.2 | non-cytotoxic | > 100 | selective for the estrogen-independent MDA-MB-231 cells; also recorded: more selective towards the ER-cells
OCCOc1ccc(/C(=C(/CCCl)c2ccccc2)c2ccccc2)cc1 [OSP, Ospemifene, reference compound] | 55 | > 100 |  |  | 

More lines, main results first:

IC50 (MCF-7 cells) [µM] | IC50 (MDA-MB-231 cells) [µM] | Structure (SMILES) | cytotoxicity against HEK-293 cells (in words) (HEK-293 cells) | IC50 (HEK-293 cells) [µM] | selectivity between cell lines (in words) (MDA-MB-231 cells)
33.1 | 18.1 | O=C1C(=O)N(Cc2cn(CC/C(=C(\c3ccccc3)c3ccc(OCCO)cc3)c3ccccc3)nn2)c2ccc(Cl)cc21 [14b] |  |  | selective for the estrogen-independent MDA-MB-231 cells
> 100 | > 100 | O=C1C(=O)N(Cc2cn(CC/C(=C(\c3ccccc3)c3ccc(OCCO)cc3)c3ccccc3)nn2)c2ccccc21 [14a] |  |  | 
> 100 | > 100 | O=C1N(Cc2cn(CC/C(=C(\c3ccccc3)c3ccc(OCCO)cc3)c3ccccc3)nn2)c2ccc(Cl)cc2C12OCCO2 [15b] |  |  | 
> 100 | > 100 | O=C1C(=O)N(Cc2cn(CC/C(=C(\c3ccccc3)c3ccc(OCCO)cc3)c3ccccc3)nn2)c2ccc(Br)cc21 [14d] |  |  | 
70.7 | 70.7 | O=C1C(=O)N(Cc2cn(CC/C(=C(\c3ccccc3)c3ccc(OCCO)cc3)c3ccccc3)nn2)c2ccc(F)cc21 [14c] |  |  | 
> 100 | > 100 | O=C1N(Cc2cn(CC/C(=C(\c3ccccc3)c3ccc(OCCO)cc3)c3ccccc3)nn2)c2ccc(Br)cc2C12OCCO2 [15d] |  |  | 
> 100 | > 100 | O=C1N(Cc2cn(CC/C(=C(\c3ccccc3)c3ccc(OCCO)cc3)c3ccccc3)nn2)c2ccc(F)cc2C12OCCO2 [15c] |  |  | 
